Measured values as given in patent publication US7932262B2 (Novartis AG, priority 2006, dated 2011).
Read-outs that look alike come from different tables or passages of the source.

How the values were obtained:
[1] = system: PC-3 cells; assay: Cell Proliferation Assay (Cell Titer Glo), PC-3 cell line; format: cell-based; settings: Homo sapiens
In short: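 Cell Titer Glo luminescence, read after fresh medium replaced the dosing medium, gave viability of PC-3 cells plated at 1000 cells/well. Compounds, 1:3 serially diluted in DMSO at 500× and then in medium, were added after 3-5 h adhesion and incubated 3 days at 37° C.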

[2] = target: T1, PDK1 kinase (Homo sapiens, UniProt O15530); assay: PDK1 Kinase Alpha Screen Assay; format: biochemical
T1 sequence (O15530 1-556): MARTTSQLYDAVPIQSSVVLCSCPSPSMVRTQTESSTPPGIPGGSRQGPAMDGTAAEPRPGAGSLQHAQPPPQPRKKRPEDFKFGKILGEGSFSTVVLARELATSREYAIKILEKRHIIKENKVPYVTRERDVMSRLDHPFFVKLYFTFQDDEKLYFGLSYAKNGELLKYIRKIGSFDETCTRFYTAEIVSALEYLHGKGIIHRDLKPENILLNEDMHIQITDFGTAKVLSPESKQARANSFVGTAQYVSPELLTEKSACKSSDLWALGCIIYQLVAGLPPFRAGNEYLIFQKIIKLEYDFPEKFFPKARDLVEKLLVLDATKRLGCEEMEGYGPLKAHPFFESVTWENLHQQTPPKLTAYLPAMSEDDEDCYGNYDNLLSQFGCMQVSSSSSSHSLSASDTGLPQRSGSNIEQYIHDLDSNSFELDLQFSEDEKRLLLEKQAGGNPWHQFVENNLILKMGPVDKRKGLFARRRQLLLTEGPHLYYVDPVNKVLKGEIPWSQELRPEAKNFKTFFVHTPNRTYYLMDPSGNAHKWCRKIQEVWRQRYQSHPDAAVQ
In short: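 AlphaScreen readout: phospho-peptide captured by phospho-(Ser/Thr) PKA substrate antibody (0.3 mg/ml) on protein A acceptor beads, biotin peptide on streptavidin donor beads (25 μg/ml each), overnight at room temperature. Kinase step used 50 nM PDK1-4 peptide, 10 uM ATP, 3-18 hours.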

[3] = PC-3, Cell Proliferation Assay, PC3 cells, read-out: CPEC50 PC3
[4] = PDK1 Kinase Alpha Screen Assay, read-out: PDK1 IC50
[5] = PC-3, Cell Proliferation Assay, PC3, read-out: CPEC50 PC3
[6] = PC-3, PC3 cells, read-out: CPEC50 PC3

CC(C)Cn1cc(-c2ccc3cnc(Nc4ccc(S(=O)(=O)NCCCN5CCCC5)cc4)nc3c2)cn1 [Compound 709, 4-(7-(1-isobutyl-1H-pyrazol-4-yl)quinazolin-2-ylamino)-N-(3-(pyrrolidin-1-yl)propyl)benzenesulfonamide]
EC50 [1, 3]: < 5 µM | IC50 [2, 4]: < 5 µM

O=C(c1ccc(Nc2ncc3ccc(-c4cn[nH]c4)cc3n2)cc1)N1CCOCC1 [Compound 344, (4-(7-(1H-pyrazol-4-yl)quinazolin-2-ylamino)phenyl)(morpholino)methanone]
EC50 [1, 5]: < 5 µM | IC50 [2, 4]: < 5 µM

Fc1cccc(Nc2ncc3cccc(OC4CCNCC4)c3n2)c1 [Compound 480, N-(3-fluorophenyl)-8-(piperidin-4-yloxy)quinazolin-2-amine]
EC50 [1, 5]: < 5 µM | IC50 [2, 4]: < 5 µM

CC(C)N1CCC(Oc2cc3nc(Nc4ccc(N5CCOCC5)cc4)ncc3cc2-c2cn[nH]c2)CC1 [Compound 621, 7-(1-isopropylpiperidin-4-yloxy)-N-(4-morpholinophenyl)-6-(1H-pyrazol-4-yl)quinazolin-2-amine]
EC50 [1, 5]: < 5 µM | IC50 [2, 4]: < 5 µM

CC(C)NC(=O)c1ccc(Nc2ncc3c(Br)ccc(OC4CCNCC4)c3n2)cc1 [Compound 337, 4-(5-bromo-8-(piperidin-4-yloxy)quinazolin-2-ylamino)-N-isopropylbenzamide]
EC50 [1, 5]: < 5 µM | IC50 [2, 4]: < 5 µM

O=C(c1ccc(Nc2ncc3ccc(N(CCO)CCO)cc3n2)cc1)N1CCOCC1 [Compound 352, (4-(7-(bis(2-hydroxyethyl)amino)quinazolin-2-ylamino)phenyl)(morpholino)methanone]
EC50 [1, 5]: 5 to 10 µM | IC50 [2, 4]: < 5 µM

Brc1cc2cnc(Nc3ccc(N4CCOCC4)cc3)nc2cc1OC1CCNCC1 [Compound 650, 6-bromo-N-(4-morpholinophenyl)-7-(piperidin-4-yloxy)quinazolin-2-amine]
EC50 [1, 5]: < 5 µM | IC50 [2, 4]: < 5 µM

CC(C)Cn1cc(-c2ccc3cnc(Nc4ccc(N5CCN(C)CC5)cc4)nc3c2)cn1 [Compound 1025, 7-(1-isobutyl-1H-pyrazol-4-yl)-N-(4-(4-methylpiperazin-1-yl)phenyl)quinazolin-2-amine]
EC50 [1, 6]: < 5 µM | IC50 ([2]; read-out: PDK1 IC50): < 5 µM

Cc1ccc(C(=O)O)cc1-c1ccc2cnc(Nc3ccc(S(N)(=O)=O)cc3)nc2c1 [Compound 390, 4-methyl-3-(2-(4-sulfamoylphenylamino)quinazolin-7-yl)benzoic acid]
EC50 [1, 5]: 5 to 10 µM | IC50 [2, 4]: < 5 µM

CN1CCN(C(=O)c2ccc(Nc3ncc4cccc(OC5CCNCC5)c4n3)cc2F)CC1 [Compound 478, (2-fluoro-4-(8-(piperidin-4-yloxy)quinazolin-2-ylamino)phenyl)(4-methylpiperazin-1-yl)methanone]
EC50 [1, 5]: < 5 µM | IC50 [2, 4]: < 5 µM

C#Cc1cc(OC2CCN(C(C)C)CC2)c2nc(Nc3cccc(N4CCOCC4)c3)ncc2c1 [Compound 697, 6-ethynyl-8-(1-isopropylpiperidin-4-yloxy)-N-(3-morpholinophenyl)quinazolin-2-amine]
EC50 [1, 5]: < 5 µM | IC50 [2, 4]: < 5 µM

Fc1ccc(Nc2ncc3cccc(-c4ccc(NCCN5CCCC5)nc4)c3n2)cc1F [Compound 1018, N-(3,4-difluorophenyl)-8-(6-(2-(pyrrolidin-1-yl)ethylamino)pyridin-3-yl)quinazolin-2-amine]
EC50 [1, 6]: < 5 µM | IC50 ([2]; read-out: PDK1 IC50): < 5 µM

CN1CCN(c2ccc(-c3cccc4cnc(Nc5ccc(N6CCOCC6)c(Cl)c5)nc34)cn2)CC1 [Compound 466, N-(3-chloro-4-morpholinophenyl)-8-(6-(4-methylpiperazin-1-yl)pyridin-3-yl)quinazolin-2-amine]
EC50 [1, 5]: < 5 µM | IC50 [2, 4]: < 5 µM

CC(C)N1CCC(Oc2cccc3cnc(Nc4cccc(N5CCOCC5)c4)nc23)CC1 [Compound 80, [8-(1-Isopropyl-piperidin-4-yloxy)-quinazolin-2-yl]-(3-morpholin-4-yl-phenyl)-amine]
EC50 ([1]; PC-3, 72 h, PC-3 cells, 3 days incubation, read-out: CP EC50 PC3): 5 to 10 µM | IC50 ([2]; read-out: PDK1 IC50): < 5 µM

CC(=O)Nc1ccc(Nc2ncc3cccc(-c4ccc(NCCN5CCCC5)nc4)c3n2)cc1C [Compound 1027, N-(2-methyl-4-(8-(6-(2-(pyrrolidin-1-yl)ethylamino)pyridin-3-yl)quinazolin-2-ylamino)phenyl)acetamide]
EC50 [1, 6]: < 5 µM | IC50 ([2]; read-out: PDK1 IC50): < 5 µM

Clc1cc(Nc2ncc3c(Cl)ccc(OC4CCNCC4)c3n2)ccc1N1CCOCC1 [Compound 602]
EC50 [1, 5]: < 5 µM | IC50 [2, 4]: < 5 µM

Fc1ccc(Nc2ncc3cccc(OC4CCNCC4)c3n2)cc1Br [Compound 484, N-(3-bromo-4-fluorophenyl)-8-(piperidin-4-yloxy)quinazolin-2-amine]
EC50 [1, 5]: < 5 µM | IC50 [2, 4]: < 5 µM

NS(=O)(=O)c1ccc(Nc2ncc3cccc(-c4cncc(CNC5CCOCC5)c4)c3n2)cc1 [Compound 948, 4-(8-(5-((tetrahydro-2H-pyran-4-ylamino)methyl)pyridin-3-yl)quinazolin-2-ylamino)benzenesulfonamide]
EC50 [1, 6]: < 5 µM | IC50 ([2]; read-out: PDK1 IC50): < 5 µM

CC(C)N1CCC(Oc2ccc(Br)c3cnc(Nc4ccc(C(=O)N5CCOCC5)cc4)nc23)CC1 [Compound 358, (4-(5-bromo-8-(1-isopropylpiperidin-4-yloxy)quinazolin-2-ylamino)phenyl)(morpholino)methanone]
EC50 [1, 5]: 5 to 10 µM | IC50 [2, 4]: < 5 µM

N#Cc1ccc(Nc2ncc3cccc(-c4ccc(NCCN5CCCC5)nc4)c3n2)cc1 [Compound 427, 4-(8-(6-(2-(pyrrolidin-1-yl)ethylamino)pyridin-3-yl)quinazolin-2-ylamino)benzonitrile]
EC50 [1, 5]: < 5 µM | IC50 [2, 4]: < 5 µM

O=C(c1ccc(Nc2ncc3cccc(OC4CCNCC4)c3n2)cc1)N1CCOCC1 [Compound 538, morpholino(4-(8-(piperidin-4-yloxy)quinazolin-2-ylamino)phenyl)methanone]
EC50 [1, 5]: < 5 µM | IC50 [2, 4]: < 5 µM

CCN1CCC[C@H]1CNc1ccc(-c2cccc3cnc(Nc4ccc(S(N)(=O)=O)cc4)nc23)cn1 [Compound 973, (S)-4-(8-(6-((1-ethylpyrrolidin-2-yl)methyamino)-pyridin-3-yl)quinazolin-2-ylamino)benzenesulfonamide]
EC50 [1, 6]: < 5 µM | IC50 ([2]; read-out: PDK1 IC50): < 5 µM

Cc1ccc(Nc2ncc3cccc(-c4ccc(NCCN5CCCC5)nc4)c3n2)cc1NS(C)(=O)=O [Compound 1001, N-(2-methyl-5-(8-(6-(2-(pyrrolidin-1-yl)ethylamino)pyridin-3-yl)quinazolin-2-ylamino)phenyl)methanesulfonamide]
EC50 [1, 6]: < 5 µM | IC50 ([2]; read-out: PDK1 IC50): < 5 µM

CC(C)NS(=O)(=O)c1ccc(Nc2ncc3cccc(-c4ccc(NCCN5CCCC5)nc4)c3n2)cc1 [Compound 1016, N-isopropyl-4-(8-(6-(2-(pyrrolidin-1-yl)ethylamino)pyridin-3-yl)quinazolin-2-ylamino)benzenesulfonamide]
EC50 [1, 6]: < 5 µM | IC50 ([2]; read-out: PDK1 IC50): < 5 µM

Cc1ccc(OC2CCN(C(C)C)CC2)c2nc(Nc3ccc(C(=O)N4CCOCC4)cc3)ncc12 [Compound 359, (4-(8-(1-isopropylpiperidin-4-yloxy)-5-methylquinazolin-2-ylamino)phenyl)(morpholino)methanone]
EC50 [1, 5]: 5 to 10 µM | IC50 [2, 4]: < 5 µM

O=C(c1ccc(Nc2ncc3ccc(NCC4CCNCC4)cc3n2)cc1)N1CCOCC1 [Compound 351, morpholino(4-(7-(piperidin-4-ylmethylamino)quinazolin-2-ylamino)phenyl)methanone]
EC50 [1, 5]: 5 to 10 µM | IC50 [2, 4]: < 5 µM

O=C(c1cc(F)cc(Nc2ncc3cccc(OC4CCNCC4)c3n2)c1)N1CCOCC1 [Compound 462]
EC50 [1, 5]: < 5 µM | IC50 [2, 4]: < 5 µM

O=C(NC1CC1)c1ccc(Nc2ncc3c(Cl)ccc(OC4CCNCC4)c3n2)cc1 [Compound 604, 4-(5-chloro-8-(piperidin-4-yloxy)quinazolin-2-ylamino)-N-cyclopropylbenzamide]
EC50 [1, 5]: < 5 µM | IC50 [2, 4]: < 5 µM

CC(C)Cn1cc(-c2ccc3cnc(Nc4ccc(S(=O)(=O)NCCN5CCOCC5)cc4)nc3c2)cn1 [Compound 710, 44-(7-(1-isobutyl-1H-pyrazol-4-yl)quinazolin-2-ylamino)-N-(2-morpholinoethyl)benzenesulfonamide]
EC50 [1, 3]: < 5 µM | IC50 [2, 4]: < 5 µM

COc1c(-c2cnn(C)c2)cc(Cl)c2cnc(Nc3ccc(N4CCOCC4)cc3)nc12 [Compound 1035, 5-chloro-8-methoxy-7-(1-methyl-1H-pyrazol-4-yl)-N-(4-morpholinophenyl)quinazolin-2-amine]
EC50 [1, 6]: < 5 µM | IC50 ([2]; head of the second part of Table 4: BV11261, read-out: PDK1 BV11261): < 5 µM

O=C(c1ccc(Nc2ncc3ccc(-c4cnn(CCF)c4)cc3n2)cc1)N1CCOCC1 [Compound 343, (4-(7-(1-(2-fluoroethyl)-1H-pyrazol-4-yl)quinazolin-2-ylamino)phenyl)(morpholino)methanone]
EC50 [1, 5]: < 5 µM | IC50 [2, 4]: < 5 µM
